Measurements reported in US10815197B2, “N-sulfonyl benzamides as voltage-gated sodium channel inhibitors” (SHANGHAI HAIYAN PHARMACEUTICAL TECHNOLOGY CO., LTD., priority 2016, dated 2020).
Read-outs that look alike come from different tables or passages of the source.

Tests used:
[1] = Metabolism stability assay, human liver microsomes; type: in vitro ADME; settings: for half-life at 1 µM: pH 7.4; for metabolic stability (in words): from Table 7
Method: Assay 4: Metabolism Stability Assay 1. […] Buffer A: 1 L solution of 100 mM potassium dihydrogen phosphate containing 1 mM EDTA (Sigma, V900157-100G) was prepared. Buffer B: 1 L solution of 100 mM dipotassium hydrogen phosphate containing 1 mM EDTA was prepared. Buffer C: 700 mL of buffer B was taken out and titrated with buffer A to pH 7.4. 2. […] 2.2 20 μl (20 mg/mL) of liver microsomes (Corning Lot. NO. 4133007) stock solution was added to 513.4 μl of buffer C on wet ice. 0.75 mg/mL liver microsomal solution was obtained. 2.3 1.5 μl of each of the above-mentioned compound to be tested and ketanserin solution was added to 498.5 μl of liver microsomal solution (0.7 5 mg/mL) respectively on wet ice. 1.5 μM mixed solution of compound to be tested and 1.5 μM mixed solution of ketanserin were obtained. 2.4 At the time points 0, 5, 15, 30, 45, and 60 min, 30 μl of the mixed solution of compound to be tested and 30 μl of the mixed solution of ketanserin were dispensed into the reaction plate on wet ice, respectively. 2.5 5 mg reduced coenzyme II (Roche, 10621706001) was weighed and dissolved in 1 mL of buffer C. 6 mM reduced coenzyme II solution was obtained. The reduced coenzyme II solution was dispensed into the reaction plate. 2.6 Imipramine was dissolved to give a 10 mM solution. 10 μl of imipramine solution was added to 100 mL of blank acetonitrile to generate the internal reference. 2.7 At 0 min, 135 μL of iced acetonitrile (Merck (Lot. 1778229518)) containing the internal reference was added to each well and then 15 μL of buffer C was added. 2.8 The reaction plate was placed into a 37° C. water bath incubator for 5 min. In the reaction plate, 15 μL of reduced coenzyme II solution was added to each well to initiate the reaction, and the timing was started. At the time points of 5, 15, 30, 45, and 60 min, 135 μL of iced acetonitrile containing the internal reference was added to each well to terminate the reaction. 2.9 The reaction plate was sealed with an aluminum film, placed on a vibration mixer and shaken at 500 rpm for 5 min. The plate was then centrifuged in a centrifuge at 3750 rp for 15 min. 2.10 The sample was diluted with pure water in accordance with the ratio of 1:1 and detected by LC/MS. Half-life: 0.693/K (the slope by plotting based on the incubation time and logarithm of the concentration value) Clearance ratio: (0.693/half-life)*(1/protein concentration (0.5 mg/mL))*(proportional factor) Wherein, the K value and the proportional factor were calculated by those skilled in the art according to the methods described in the prior art and contained in the instructions of the liver microsome product.

hNav1.7 = target: T1, hNav1.7 (Homo sapiens, UniProt Q15858); assay: Manual patch clamp experiment hNav1.7 (CHO-hNav1.7 stable cell line); type: cell-based; settings: for inhibition at 0.1 µM: read-out: Inhibition of Nav1.7 100 nM(%); for inhibition at 1 µM: read-out: Inhibition of Nav1.7 1000 nM(%)
T1 construct: host or cells: CHO
T1 sequence (Q15858 whole entry): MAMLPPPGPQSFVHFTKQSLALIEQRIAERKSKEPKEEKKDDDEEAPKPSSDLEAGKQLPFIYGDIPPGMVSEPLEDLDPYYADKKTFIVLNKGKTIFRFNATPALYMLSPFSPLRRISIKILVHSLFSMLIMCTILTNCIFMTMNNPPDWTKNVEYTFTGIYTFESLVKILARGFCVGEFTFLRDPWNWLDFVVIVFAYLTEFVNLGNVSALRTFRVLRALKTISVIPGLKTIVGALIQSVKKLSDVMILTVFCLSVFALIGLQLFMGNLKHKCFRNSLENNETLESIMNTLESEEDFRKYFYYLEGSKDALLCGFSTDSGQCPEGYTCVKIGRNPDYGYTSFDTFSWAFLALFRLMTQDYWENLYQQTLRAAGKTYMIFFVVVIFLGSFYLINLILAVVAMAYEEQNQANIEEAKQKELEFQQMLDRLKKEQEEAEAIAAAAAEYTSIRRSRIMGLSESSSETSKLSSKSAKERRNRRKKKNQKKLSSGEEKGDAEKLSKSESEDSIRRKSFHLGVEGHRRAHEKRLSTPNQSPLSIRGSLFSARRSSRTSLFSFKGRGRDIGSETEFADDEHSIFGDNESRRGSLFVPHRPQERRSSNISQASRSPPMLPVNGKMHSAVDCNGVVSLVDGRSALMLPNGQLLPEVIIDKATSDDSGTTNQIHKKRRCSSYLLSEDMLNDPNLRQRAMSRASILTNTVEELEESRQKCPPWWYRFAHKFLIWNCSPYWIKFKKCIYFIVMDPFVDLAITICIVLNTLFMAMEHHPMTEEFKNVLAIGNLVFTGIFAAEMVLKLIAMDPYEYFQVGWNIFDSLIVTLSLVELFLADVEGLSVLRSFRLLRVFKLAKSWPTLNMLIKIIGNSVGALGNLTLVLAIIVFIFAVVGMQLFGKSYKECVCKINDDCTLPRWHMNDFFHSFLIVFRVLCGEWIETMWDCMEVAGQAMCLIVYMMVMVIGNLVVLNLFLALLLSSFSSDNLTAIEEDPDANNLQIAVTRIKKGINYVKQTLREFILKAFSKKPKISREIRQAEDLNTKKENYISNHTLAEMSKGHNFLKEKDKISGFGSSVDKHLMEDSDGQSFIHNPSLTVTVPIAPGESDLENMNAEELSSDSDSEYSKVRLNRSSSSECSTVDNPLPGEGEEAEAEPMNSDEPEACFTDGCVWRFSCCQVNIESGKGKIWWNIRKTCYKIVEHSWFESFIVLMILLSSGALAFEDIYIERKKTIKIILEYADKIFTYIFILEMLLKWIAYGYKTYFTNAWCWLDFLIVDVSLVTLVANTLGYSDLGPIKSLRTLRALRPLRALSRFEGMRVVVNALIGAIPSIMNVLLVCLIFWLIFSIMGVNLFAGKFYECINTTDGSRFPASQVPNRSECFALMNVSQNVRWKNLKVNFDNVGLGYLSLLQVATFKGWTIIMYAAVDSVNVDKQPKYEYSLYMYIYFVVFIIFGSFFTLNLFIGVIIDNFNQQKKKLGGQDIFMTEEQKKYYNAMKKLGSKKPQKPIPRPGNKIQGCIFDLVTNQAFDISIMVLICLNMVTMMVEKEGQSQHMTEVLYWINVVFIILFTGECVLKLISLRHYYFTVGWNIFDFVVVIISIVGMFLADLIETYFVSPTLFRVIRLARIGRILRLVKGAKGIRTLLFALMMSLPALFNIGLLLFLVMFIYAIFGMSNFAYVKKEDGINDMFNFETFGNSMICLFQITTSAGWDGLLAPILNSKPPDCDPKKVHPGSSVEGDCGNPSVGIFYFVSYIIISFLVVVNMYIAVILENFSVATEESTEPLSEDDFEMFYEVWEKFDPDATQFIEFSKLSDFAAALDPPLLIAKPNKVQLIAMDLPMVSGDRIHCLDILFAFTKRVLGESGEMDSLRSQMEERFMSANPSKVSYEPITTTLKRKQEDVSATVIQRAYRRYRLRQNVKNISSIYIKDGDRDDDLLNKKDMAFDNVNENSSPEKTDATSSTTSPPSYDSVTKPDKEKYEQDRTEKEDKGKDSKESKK
Text: Assay 1: Manual Patch Clamp Experiment of Sodium Ion (hNav1.7, hNav1.5 and hNaV1.8) and Calcium Ion (hCav3.2) Channels
hNav1.7, hNav1.5 Manual Patch Clamp Experiment:
Patch voltage clamp electrophysiology allows for the direct measurement and quantification of current block of voltage-gated sodium channels (NaV's), and allows the determination of the time and voltage-dependence of block which has been interpreted as differential binding to the resting, open and inactivated states of the sodium channel to reflect the compound's inhibitory or activating effects (Hille, B., Journal of General Physiology (1977), 69: 497-515).
Representative compounds of the present invention were subject to a manual patch clamp experiment and the purpose of this study was to test the effect of compounds on this ion channel current on a stable cell line transfected with a specific ion channel using a manual patch clamp method. The used stable cell lines CHO-hNav1.7 and HEK-hNav1.5 were from Genionics and WuXi Apptec (Shanghai) respectively.
Manual patch clamp experimental program is as follows:
(1) Preparation of solutions and compounds: The whole cell patch clamp technique was used to record hNav1.7 and hNav1.5 currents. In the experiment, the composition of extracellular fluid (mM): HEPES: 5, NaCl: 40, KCl: CaCl2: 1, MgCl2: 1, CdCl2: 0.1, TEA-Cl: 20. The pH was adjusted to 7.3 with NaOH and the osmotic pressure was adjusted to 310-320 mOsm with sucrose, filtered and stored at 4° C. The composition of the intracellular fluid (mM): HEPES: 10, NaCl: 10, CsOH: 5, CsF: 140, EGTA: 1. The pH was adjusted to 7.3 with CsOH and the osmotic pressure was adjusted to 280-290 mOsm with sucrose, filtered and stored at −20° C.
The positive control and the test compound were firstly dissolved in 100% DMSO (Sigma-Aldrich, D2650), configured as stock solution at a concentration (100 nM, 1000 nM).) The above stock solution was serially diluted with DMSO prior to the experiment, the solution was further diluted with extracellular solution to obtain the test solution of the desired concentration.
(2) Manual Patch Clamp Experiment: The cell suspension was added to a 35 mm petri dish and placed on an inverted microscope stage. The cells were perfused with an extracellular fluid and the flow rate was 1-2 mL/min after cell adherence. The glass microelectrode was prepared in two steps by a microelectrode puller with an inlet water resistance of 2-5 MΩ. A/D-D/A digital-analog conversion was performed by Digidata 1440 (Molecular Devices) and pCLAMP software (version 10.2, Molecular Devices) for stimulation and signal acquisition; the signal was amplified by patch clamp amplifier (Multiclamp 700B, Molecular Devices), and filtering is 4 KHz.
Two different voltage stimulation procedures were used in the hNav1.7 and hNav1.5 manual patch clamp experiments.
One is the inactivation stimulation program, the clamp potential is set at V1/2 of the corresponding channel, i.e., about 50% of the channels are inactivated, then the voltage is applied to −120 mV for 50 ms, then depolarized to −10 mV for 20 ms leading to sodium current, and finally returned to the clamp potential. This stimulation program can also be called channel state-dependent voltage stimulation program.
The other is the non-inactivation stimulation program, the clamp potential is maintained at −120 mV, voltage stimulation is given to −10 mV for 20 ms leading to sodium current, and finally returned to the clamp potential. That is, all channels have not experienced inactivation status, but activate directly from the resting state under the conditions of the stimulation program.
The time intervals of these two voltage stimulation programs were 10 s. The inhibitory effect of the compound was calculated by the change of the current before and after dosing, the IC50 value was fitted by the Hill equation.

[2] = tested on: SNL-induced cold allodynia in rats; assay: Cold allodynia in SNL (spinal nerve ligation) rats; type: in vivo, rat
Text: Assay 3: Cold Allodynia in SNL
The experimental animals were male Sprague-Dawley rats, weighing 140-150 g at the beginning of the experiment. The animals were purchased from Slack company, and food and water were supplied ad lib after purchase. Rats were group-housed, four rats/cage, and individually identified by marking on the tail.
Test Compound and Grouping:
Vehicle: 5% dimethylacetamide(Sinopharm Technology), 5% solutol (Sigma) and 90% saline
Positive control: Pregabalin;
Test compound: compound Z-164;
The positive control and solvent composition of the test compound are 5% dimethylacetamide, 5% solutol and 90% saline.
30 mg/kg Compound Z-164:1.23 mL of dimethylacetamide was added to 148.11 mg of compound Z-164, stirred well until fully dissolved, and then 1.23 mL solutol was added and mixed well. Final volume was made up with 90% saline to 21.44 mL and mixed well before oral administration.
30 mg/kg Pregabalin: 1.08 mL of dimethylacetamide was added to 129.48 mg of Pregabalin, stirred well until fully dissolved, and then 1.08 mL solutol was added and mixed well. Final volume was made up with 90% saline to 21.58 mL and mixed well before oral administration.
1.1. Spinal Nerve Ligation (SNL) model • Surgical procedures are performed aseptically. • The surgical instruments (scissors, tweezers, scalpels, surgical cotton, sutures, retractor) are sterilized prior to surgery. • Animals were anesthetized with pentobarbital (50 mg/kg, i.p.). A toe pinch was used to ensure that the animals were fully anesthetized prior to surgery. Put ophthalmic ointment in the animal's eyes to prevent the corneas from drying out. • The fur on the surgical area of animal's lower body was shaved, and the skin of the surgical area was swabbed with 3 rounds of Betadine and 70% ethanol. The skin was allowed to dry before surgery. • A longitudinal incision will be made by scalpel at the lower lumbar and sacral levels, exposing the paraspinal muscles on the left side. The retractor was used to separate the muscles and tissues to expose the vertebra. • The left L5 and L6 spinal nerves will be isolated and tightly ligated with 6-0 silk thread. • The wound was closed with sutures. • The surgical instruments were cleaned, and sterilized by using a glass bead sterilizer. • Animals were placed on the electric blanket after surgery. Inject 5 ml sterile saline to prevent dehydration. The animals were returned to their home cage after fully awake (walking around).
1.2. Baseline Test of Cold Allodynic and Grouping
The baseline of cold allodynic was measured in rats two days before dosing. Use a pipette to apply 100 μl of acetone to the animal's lateral hind paw skin and the time of slapping, flinching, lifting, licking of the affected paw were recorded for one minute. Acetone was applied twice in total and the two applications were 10 minutes apart. The sum of the two times was recorded as cold allodynic time in rats. The rats were grouped randomized according to the results of baseline test of cold allodynic the day before dosing.
1.3. Cold Allodynic Testing
A pipette was used to apply 100 μl of acetone to the animal's lateral hind paw skin two hours after dosing and the time of slapping, flinching, lifting, licking of the affected paw were recorded for one minute. Acetone was applied twice and the two applications were 10 minutes apart. The sum of the two times was recorded as cold allodynic time in rats.
Oral administration was performed two hours before cold allodynic testing.
1.5. Data Collection and Analysis
Data were collected with Excel and analyzed with Prism.

[3] = 30 mg/kg p.o., two hours after dosing

Row | Structure (SMILES) | Clearance [1] [mL/min/kg] | half-life at 1 µM [1] [h] | inhibition at 0.1 µM (hNav1.7; compound at 100 nM) [%] | inhibition at 1 µM (hNav1.7; compound at 1000 nM) [%] | other results
1 | O=C(NS(=O)(=O)C1CC1)c1cc(Cl)c(OC2CCN(c3ccc(Cl)c(Cl)c3)CC2)cc1F [Compound Z-117, 5-chloro-N-(cyclopropylsulfonyl)-4-((1-(3,4-dichlorophenyl)piperidin-4-yl)oxy)-2-fluorobenzamide] | 5.41 | 5.36 | 89.3 | 96.1 | 
2 | Cc1cc(N2CCN(Cc3cc(F)c(C(=O)NS(C)(=O)=O)cc3Cl)CC2)ccc1Cl [Compound C13, reference compound] | 138.91 | 0.208 |  |  | metabolic stability (in words) [1]: significantly reduced
3 | O=C(NS(=O)(=O)C1CC1)c1cc(Cl)c(CN2CCN(c3ccc(OC(F)(F)F)c(Cl)c3)CC2)cc1F [Compound Z-92] | 0.07 | 420 | 94.5 | 97.3 | 
4 | CS(=O)(=O)NC(=O)c1cc(Cl)c(CN2CCN(c3ccc(C4CC4)c(Cl)c3)CC2)cc1F [Compound C12, reference compound] | 78.28 | 0.37 |  |  | metabolic stability (in words) [1]: significantly reduced
5 | CC(C)C[C@H](CN)CC(=O)O [Positive control, Pregabalin, reference compound] |  |  |  |  | Anti-allodynia Effect (mean, %) [2, 3]: 74.9%; Response duration (mean, s) the next day (Baseline) [2, 3]: 13.005 s; inhibition of SNL-induced cold allodynia (in words) ([2]; 30 mg/kg, 2 hr post oral administration): inhibition of SNL-induced cold allodynia; Response duration (mean, s) the first day (Baseline) ([2]; acetone cold allodynia, baseline before dosing): 36.847 s
6 | O=C(NS(=O)(=O)C1CC1)c1cc(Cl)c(OC[C@H]2CCCN2c2ccc(C(F)(F)F)nc2)cc1F [Compound Z-119, (R)-5-chloro-N-(cyclopropylsulfonyl)-2-fluoro-4-((1-(6-(trifluoromethyl)pyridin-3-yl)pyrrolidin-2-yl)methoxy) benzamide] | 22.57 | 1.28 |  |  | 
7 | O=C(NS(=O)(=O)C1CC1)c1cc(Cl)c(CN2CCN(c3ccc(Cl)c(Cl)c3)CC2)cc1F [Compound Z-89, 5-chloro-N-(cyclopropylsulfonyl)-4-((4-(3,4-dichlorophenyl)piperazin-1-yl)methyl)-2-fluorobenzamide] | 6.49 | 4.46 |  |  | inhibition at 0.1 µM (hNav1.7): 94.8%; inhibition at 1 µM (hNav1.7): 99.7%
8 | O=C(NS(=O)(=O)C1CC1)c1cc(Cl)c(CN2CCN(c3ccc(OC(F)(F)F)cn3)CC2)cc1F [Compound Z-159] | 3.69 | 7.84 | 90.6 | 97.3 | 
9 | Cc1cc(C(=O)NS(=O)(=O)C2CC2)c(F)cc1OC[C@H]1CCCN1c1ccc(C(F)(F)F)cn1 [Compound Z-195] | 20.86 | 1.39 | 76.7 | 92.7 | 
10 | O=C(NS(=O)(=O)C1CC1)c1cc(Cl)c(OC[C@H]2CCCN2c2ccc(C(F)(F)F)cc2)cc1F [Compound Z-80, (R)-5-chloro-N-(cyclopropylsulfonyl)-2-fluoro-4-((1-(4-(trifluoromethyl)phenyl)pyrrolidine-2-yl)methoxy)benzamide] | 36.37 | 0.796 | 90.5 | 96.8 | 
